Our source for the Ki values is ChEMBL document CHEMBL5442175, “EUbOPEN Chemogenomics Library - PDSP Secondary Binding” (2024).

In assay [1] the target is Sodium-dependent dopamine transporter (Homo sapiens, UniProt Q01959). Kind of assay: PDSP Secondary Binding target: SLC6A3 - Compounds are tested at 10 uM concentration, plate are incubated at room temperature in the dark for 90 minutes. Reaction are stopped by vacuum filtration onto 0.3% polyethyleneimine soaked filter mats using Filtermate harvester. Scintillation cocktail is then melted onto microwave-dried filters on a hot plate and the radio activity is counted in Microbia counter.

The target in assay [2] is Kappa-type opioid receptor (Homo sapiens, UniProt P41145). Briefly: PDSP Secondary Binding target: OPRK1 - Compounds are tested at 10 uM concentration, plate are incubated at room temperature in the dark for 90 minutes. Reaction are stopped by vacuum filtration onto 0.3% polyethyleneimine soaked filter mats using Filtermate harvester. Scintillation cocktail is then melted onto microwave-dried filters on a hot plate and the radio activity is counted in Microbia counter.

The next assay addresses Mu-type opioid receptor (Homo sapiens, UniProt P35372). Kind of assay: PDSP Secondary Binding target: OPRM1 - Compounds are tested at 10 uM concentration, plate are incubated at room temperature in the dark for 90 minutes. Reaction are stopped by vacuum filtration onto 0.3% polyethyleneimine soaked filter mats using Filtermate harvester. Scintillation cocktail is then melted onto microwave-dried filters on a hot plate and the radio activity is counted in Microbia counter.

A further assay addresses T1, D(4) dopamine receptor (Homo sapiens, UniProt P21917).
T1 sequence (P21917 whole entry): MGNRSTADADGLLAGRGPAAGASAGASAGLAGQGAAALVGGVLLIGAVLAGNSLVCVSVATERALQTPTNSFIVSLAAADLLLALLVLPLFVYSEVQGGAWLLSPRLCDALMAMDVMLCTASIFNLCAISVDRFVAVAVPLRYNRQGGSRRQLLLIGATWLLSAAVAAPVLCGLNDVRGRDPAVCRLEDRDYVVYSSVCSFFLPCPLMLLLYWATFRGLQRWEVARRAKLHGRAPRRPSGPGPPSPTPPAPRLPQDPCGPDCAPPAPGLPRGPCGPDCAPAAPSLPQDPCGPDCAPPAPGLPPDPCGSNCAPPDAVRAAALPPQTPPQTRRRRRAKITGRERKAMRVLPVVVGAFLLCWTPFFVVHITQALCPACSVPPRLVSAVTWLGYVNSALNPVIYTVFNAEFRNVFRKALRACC
Briefly: PDSP Secondary Binding target: DRD4 - Compounds are tested at 10 uM concentration, plate are incubated at room temperature in the dark for 90 minutes. Reaction are stopped by vacuum filtration onto 0.3% polyethyleneimine soaked filter mats using Filtermate harvester. Scintillation cocktail is then melted onto microwave-dried filters on a hot plate and the radio activity is counted in Microbia counter.

For assay [3], the target named is Sigma non-opioid intracellular receptor 1 (Homo sapiens, UniProt Q99720). Kind of assay: PDSP Secondary Binding target: SIGMAR1 - Compounds are tested at 10 uM concentration, plate are incubated at room temperature in the dark for 90 minutes. Reaction are stopped by vacuum filtration onto 0.3% polyethyleneimine soaked filter mats using Filtermate harvester. Scintillation cocktail is then melted onto microwave-dried filters on a hot plate and the radio activity is counted in Microbia counter.

Another assay addresses Translocator protein (Homo sapiens, UniProt P30536). Kind of assay: PDSP Secondary Binding target: TSPO - Compounds are tested at 10 uM concentration, plate are incubated at room temperature in the dark for 90 minutes. Reaction are stopped by vacuum filtration onto 0.3% polyethyleneimine soaked filter mats using Filtermate harvester. Scintillation cocktail is then melted onto microwave-dried filters on a hot plate and the radio activity is counted in Microbia counter.

Assay [4] has as its target 5-hydroxytryptamine receptor 5A (Homo sapiens, UniProt P47898). Briefly: PDSP Secondary Binding target: HTR5A - Compounds are tested at 10 uM concentration, plate are incubated at room temperature in the dark for 90 minutes. Reaction are stopped by vacuum filtration onto 0.3% polyethyleneimine soaked filter mats using Filtermate harvester. Scintillation cocktail is then melted onto microwave-dried filters on a hot plate and the radio activity is counted in Microbia counter.

Assay [5] concerns the target Sigma intracellular receptor 2 (Homo sapiens, UniProt Q5BJF2). Kind of assay: PDSP Secondary Binding target: TMEM97 - Compounds are tested at 10 uM concentration, plate are incubated at room temperature in the dark for 90 minutes. Reaction are stopped by vacuum filtration onto 0.3% polyethyleneimine soaked filter mats using Filtermate harvester. Scintillation cocktail is then melted onto microwave-dried filters on a hot plate and the radio activity is counted in Microbia counter.

Assay [6] has as its target 5-hydroxytryptamine receptor 2B (Homo sapiens, UniProt P41595). Briefly: PDSP Secondary Binding target: HTR2B - Compounds are tested at 10 uM concentration, plate are incubated at room temperature in the dark for 90 minutes. Reaction are stopped by vacuum filtration onto 0.3% polyethyleneimine soaked filter mats using Filtermate harvester. Scintillation cocktail is then melted onto microwave-dried filters on a hot plate and the radio activity is counted in Microbia counter.

Assay [7] concerns the target T2, Alpha-1B adrenergic receptor (Homo sapiens, UniProt P35368).
T2 sequence (P35368 whole entry): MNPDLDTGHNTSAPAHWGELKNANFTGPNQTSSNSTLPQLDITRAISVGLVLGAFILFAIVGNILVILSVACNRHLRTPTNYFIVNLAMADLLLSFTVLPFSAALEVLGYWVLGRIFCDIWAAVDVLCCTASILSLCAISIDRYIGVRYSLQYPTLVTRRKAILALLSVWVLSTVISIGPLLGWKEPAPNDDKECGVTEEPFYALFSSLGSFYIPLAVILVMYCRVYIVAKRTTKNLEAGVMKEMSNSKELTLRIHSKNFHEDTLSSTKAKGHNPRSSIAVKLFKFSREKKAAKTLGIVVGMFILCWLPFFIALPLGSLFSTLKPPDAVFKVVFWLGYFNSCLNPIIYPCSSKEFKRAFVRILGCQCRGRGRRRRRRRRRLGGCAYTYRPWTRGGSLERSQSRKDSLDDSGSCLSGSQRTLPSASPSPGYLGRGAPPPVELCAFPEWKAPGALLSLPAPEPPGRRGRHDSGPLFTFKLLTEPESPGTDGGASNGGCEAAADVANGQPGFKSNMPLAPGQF
Kind of assay: PDSP Secondary Binding target: ADRA1B - Compounds are tested at 10 uM concentration, plate are incubated at room temperature in the dark for 90 minutes. Reaction are stopped by vacuum filtration onto 0.3% polyethyleneimine soaked filter mats using Filtermate harvester. Scintillation cocktail is then melted onto microwave-dried filters on a hot plate and the radio activity is counted in Microbia counter.

A further assay deals with D(3) dopamine receptor (Homo sapiens, UniProt P35462). Kind of assay: PDSP Secondary Binding target: DRD3 - Compounds are tested at 10 uM concentration, plate are incubated at room temperature in the dark for 90 minutes. Reaction are stopped by vacuum filtration onto 0.3% polyethyleneimine soaked filter mats using Filtermate harvester. Scintillation cocktail is then melted onto microwave-dried filters on a hot plate and the radio activity is counted in Microbia counter.

Assay [8] deals with 5-hydroxytryptamine receptor 1D (Homo sapiens, UniProt P28221). Kind of assay: PDSP Secondary Binding target: HTR1D - Compounds are tested at 10 uM concentration, plate are incubated at room temperature in the dark for 90 minutes. Reaction are stopped by vacuum filtration onto 0.3% polyethyleneimine soaked filter mats using Filtermate harvester. Scintillation cocktail is then melted onto microwave-dried filters on a hot plate and the radio activity is counted in Microbia counter.

For assay [9], the target named is T3, Muscarinic acetylcholine receptor M5 (Homo sapiens, UniProt P08912).
T3 sequence (P08912 whole entry): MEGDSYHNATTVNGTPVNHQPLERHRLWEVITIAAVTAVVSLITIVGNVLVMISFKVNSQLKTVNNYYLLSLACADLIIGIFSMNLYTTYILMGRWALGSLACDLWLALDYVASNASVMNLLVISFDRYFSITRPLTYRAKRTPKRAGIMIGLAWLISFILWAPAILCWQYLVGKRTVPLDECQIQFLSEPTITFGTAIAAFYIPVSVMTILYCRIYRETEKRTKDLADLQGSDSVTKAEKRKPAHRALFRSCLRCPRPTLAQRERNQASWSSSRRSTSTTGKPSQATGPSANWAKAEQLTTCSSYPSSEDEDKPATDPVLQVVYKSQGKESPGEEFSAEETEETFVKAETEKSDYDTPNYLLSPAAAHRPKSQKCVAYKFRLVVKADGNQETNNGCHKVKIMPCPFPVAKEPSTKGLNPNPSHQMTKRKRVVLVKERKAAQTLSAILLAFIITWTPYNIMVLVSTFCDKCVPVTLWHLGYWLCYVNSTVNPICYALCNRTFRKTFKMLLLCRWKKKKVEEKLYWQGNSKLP
Kind of assay: PDSP Secondary Binding target: CHRM5 - Compounds are tested at 10 uM concentration, plate are incubated at room temperature in the dark for 90 minutes. Reaction are stopped by vacuum filtration onto 0.3% polyethyleneimine soaked filter mats using Filtermate harvester. Scintillation cocktail is then melted onto microwave-dried filters on a hot plate and the radio activity is counted in Microbia counter.

Where a name gives a salt, the structure may show the parent alone.

Sodium-dependent dopamine transporter, sequence (Q01959 whole entry): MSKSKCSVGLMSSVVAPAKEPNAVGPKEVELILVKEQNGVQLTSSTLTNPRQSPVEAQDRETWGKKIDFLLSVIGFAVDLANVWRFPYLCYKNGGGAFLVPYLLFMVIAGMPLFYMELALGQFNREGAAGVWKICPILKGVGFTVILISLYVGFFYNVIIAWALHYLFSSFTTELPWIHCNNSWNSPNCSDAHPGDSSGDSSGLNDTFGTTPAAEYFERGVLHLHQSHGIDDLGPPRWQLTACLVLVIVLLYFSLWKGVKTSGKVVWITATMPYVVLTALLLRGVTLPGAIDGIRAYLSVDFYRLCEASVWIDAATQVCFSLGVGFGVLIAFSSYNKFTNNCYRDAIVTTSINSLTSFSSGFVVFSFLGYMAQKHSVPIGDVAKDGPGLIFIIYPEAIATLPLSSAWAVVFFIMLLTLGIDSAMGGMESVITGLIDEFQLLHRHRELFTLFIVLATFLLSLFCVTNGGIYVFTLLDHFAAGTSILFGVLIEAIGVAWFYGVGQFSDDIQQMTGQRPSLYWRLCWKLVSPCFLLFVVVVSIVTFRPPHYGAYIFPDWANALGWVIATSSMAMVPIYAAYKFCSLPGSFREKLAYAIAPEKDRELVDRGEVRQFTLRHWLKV
Sigma non-opioid intracellular receptor 1, sequence (Q99720 whole entry): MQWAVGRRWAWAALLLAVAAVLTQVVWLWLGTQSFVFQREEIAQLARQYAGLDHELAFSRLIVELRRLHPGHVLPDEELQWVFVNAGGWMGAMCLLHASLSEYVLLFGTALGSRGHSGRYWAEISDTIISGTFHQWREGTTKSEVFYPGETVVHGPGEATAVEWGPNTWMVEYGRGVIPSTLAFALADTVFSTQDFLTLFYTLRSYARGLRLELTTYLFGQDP
Kappa-type opioid receptor, sequence (P41145 whole entry): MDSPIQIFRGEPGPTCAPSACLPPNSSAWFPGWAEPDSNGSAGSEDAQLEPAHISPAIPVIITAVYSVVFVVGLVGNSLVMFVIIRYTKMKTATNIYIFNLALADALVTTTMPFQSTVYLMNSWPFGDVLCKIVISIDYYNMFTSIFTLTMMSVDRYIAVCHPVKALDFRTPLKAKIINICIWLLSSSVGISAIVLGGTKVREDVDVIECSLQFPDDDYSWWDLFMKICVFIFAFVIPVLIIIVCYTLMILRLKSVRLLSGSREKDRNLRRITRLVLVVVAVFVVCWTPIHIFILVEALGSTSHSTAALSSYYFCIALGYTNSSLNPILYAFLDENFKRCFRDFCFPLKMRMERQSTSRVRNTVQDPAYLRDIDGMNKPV
Mu-type opioid receptor, sequence (P35372 whole entry): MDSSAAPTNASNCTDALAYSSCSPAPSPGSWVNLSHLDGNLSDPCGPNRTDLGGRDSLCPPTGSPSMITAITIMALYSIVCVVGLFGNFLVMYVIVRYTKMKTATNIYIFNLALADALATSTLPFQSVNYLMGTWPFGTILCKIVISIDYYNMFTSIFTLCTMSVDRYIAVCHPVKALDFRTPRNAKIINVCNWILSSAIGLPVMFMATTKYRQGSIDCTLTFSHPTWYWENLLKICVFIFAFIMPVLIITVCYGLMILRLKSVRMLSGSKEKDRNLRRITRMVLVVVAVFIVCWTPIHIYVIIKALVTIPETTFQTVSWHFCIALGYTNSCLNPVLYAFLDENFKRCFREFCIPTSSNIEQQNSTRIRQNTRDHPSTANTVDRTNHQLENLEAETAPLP
5-hydroxytryptamine receptor 2B, sequence (P41595 whole entry): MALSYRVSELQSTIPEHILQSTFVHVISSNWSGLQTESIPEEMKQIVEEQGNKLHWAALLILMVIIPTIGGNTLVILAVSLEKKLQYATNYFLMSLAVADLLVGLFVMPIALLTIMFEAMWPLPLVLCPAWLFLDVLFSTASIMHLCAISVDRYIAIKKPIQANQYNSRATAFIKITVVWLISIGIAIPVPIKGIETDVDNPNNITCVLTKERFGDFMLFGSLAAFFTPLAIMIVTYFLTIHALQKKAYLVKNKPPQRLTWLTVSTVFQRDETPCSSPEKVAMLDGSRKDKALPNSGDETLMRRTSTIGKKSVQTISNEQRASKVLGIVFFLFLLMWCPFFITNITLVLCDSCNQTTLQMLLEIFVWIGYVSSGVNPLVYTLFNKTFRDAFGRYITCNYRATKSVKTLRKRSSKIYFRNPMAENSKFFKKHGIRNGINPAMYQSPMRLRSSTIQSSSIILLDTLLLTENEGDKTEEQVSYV
Sigma intracellular receptor 2, sequence (Q5BJF2 whole entry): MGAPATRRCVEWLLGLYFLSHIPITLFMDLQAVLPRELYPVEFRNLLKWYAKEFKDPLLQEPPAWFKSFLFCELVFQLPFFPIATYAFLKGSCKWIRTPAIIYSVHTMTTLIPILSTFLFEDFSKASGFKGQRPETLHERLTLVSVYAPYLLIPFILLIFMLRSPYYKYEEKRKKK
5-hydroxytryptamine receptor 5A, sequence (P47898 whole entry): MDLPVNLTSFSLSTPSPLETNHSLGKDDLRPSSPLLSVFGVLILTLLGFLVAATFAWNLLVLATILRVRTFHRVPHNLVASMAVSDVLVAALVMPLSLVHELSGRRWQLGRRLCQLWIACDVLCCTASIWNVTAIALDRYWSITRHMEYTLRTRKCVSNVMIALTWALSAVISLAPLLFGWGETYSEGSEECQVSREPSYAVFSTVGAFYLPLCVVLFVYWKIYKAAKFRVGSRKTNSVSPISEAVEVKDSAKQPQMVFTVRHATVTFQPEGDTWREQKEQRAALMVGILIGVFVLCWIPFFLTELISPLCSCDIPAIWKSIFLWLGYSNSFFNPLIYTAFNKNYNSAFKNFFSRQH
Translocator protein, sequence (P30536 whole entry): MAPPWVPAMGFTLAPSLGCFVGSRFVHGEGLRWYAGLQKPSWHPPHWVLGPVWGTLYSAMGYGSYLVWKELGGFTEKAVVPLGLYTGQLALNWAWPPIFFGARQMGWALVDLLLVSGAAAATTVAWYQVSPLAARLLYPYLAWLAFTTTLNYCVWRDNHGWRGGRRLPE
D(3) dopamine receptor, sequence (P35462 whole entry): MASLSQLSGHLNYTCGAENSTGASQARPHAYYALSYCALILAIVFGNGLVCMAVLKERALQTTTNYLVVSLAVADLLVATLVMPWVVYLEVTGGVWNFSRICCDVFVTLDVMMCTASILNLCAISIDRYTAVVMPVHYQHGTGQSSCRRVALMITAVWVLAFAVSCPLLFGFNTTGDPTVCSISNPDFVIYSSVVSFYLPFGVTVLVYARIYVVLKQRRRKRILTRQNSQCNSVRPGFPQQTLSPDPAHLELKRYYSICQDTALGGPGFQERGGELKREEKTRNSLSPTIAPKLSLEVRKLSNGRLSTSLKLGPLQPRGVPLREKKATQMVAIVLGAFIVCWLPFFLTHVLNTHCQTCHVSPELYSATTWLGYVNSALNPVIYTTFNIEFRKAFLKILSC
5-hydroxytryptamine receptor 1D, sequence (P28221 whole entry): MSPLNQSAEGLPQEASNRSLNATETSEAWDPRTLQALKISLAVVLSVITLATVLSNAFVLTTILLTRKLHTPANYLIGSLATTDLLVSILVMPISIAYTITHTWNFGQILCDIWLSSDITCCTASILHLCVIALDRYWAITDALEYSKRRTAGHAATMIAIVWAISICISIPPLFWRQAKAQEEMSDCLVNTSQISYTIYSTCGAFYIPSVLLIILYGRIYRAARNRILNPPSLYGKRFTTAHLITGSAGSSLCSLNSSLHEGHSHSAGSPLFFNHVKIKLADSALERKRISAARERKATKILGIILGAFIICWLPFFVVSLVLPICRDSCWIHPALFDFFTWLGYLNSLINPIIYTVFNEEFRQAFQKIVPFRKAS

For `C[C@H](NC[C@H](O)CP(=O)(O)CC1CCCCC1)c1ccc(Cl)c(Cl)c1`, the Ki in assay [1] stood at 0.52 µM; in assay [2], 1.11 µM; at Mu-type opioid receptor, 1.28 µM.

As for `CCCCN(CCCC)C(=O)CN1C[C@@H](c2ccc3c(c2)OCO3)[C@H](C(=O)O)[C@H]1c1ccc(OC)cc1`, the results for the Ki (at D(4) dopamine receptor; in [3]; on Translocator protein) were 1.91 µM, 2.81 µM and 0.184 µM, respectively.

As to `CC(C)NCC(O)COc1cccc2[nH]ccc12` (centres undefined) [PINDOLOL], the Ki in [4] came to 7.05 µM; in [5], 3.32 µM; at D(4) dopamine receptor it was 1.66 µM.

For the compound `c1ccc(N2CCN(Cc3nc4ccccc4[nH]3)CC2)nc1`, the Ki stood at 0.199 µM on D(4) dopamine receptor, 2.12 µM in assay [2] and 2.26 µM in [3].

On to `COc1cc2c(CCNC(C)=O)c[nH]c2cc1Cl`, for which the results for the inhibition constant Ki in assay [6] and in assay [7] were 0.844 µM and above 10 µM, respectively.

Regarding `CCc1cc2c(c(CC)n1)CCC(=O)N2Cc1ccc(-c2ccccc2-c2nnn[nH]2)cc1`, the Ki on D(4) dopamine receptor is 0.545 µM; at Mu-type opioid receptor, 6.27 µM; on D(3) dopamine receptor, 0.27 µM.

Consider `Cc1ccccc1N1CCN(S(=O)(=O)C[C@]23CC[C@H](C[C@@H]2NC(=O)[C@@H](N)CCS(C)(=O)=O)C3(C)C)CC1`, for which the results for the Ki in assay [5], in assay [2] and in [3] were 0.309 µM, 0.00403 µM and 0.0701 µM, respectively.

Turning to `COc1cc2nc(N3CCN(C(=O)c4ccco4)CC3)nc(N)c2cc1OC` [PRAZOSIN HYDROCHLORIDE], the Ki was 0.8 µM in assay [4], 2.97 µM in assay [3], 1.79 µM on Mu-type opioid receptor and above 10 µM on Translocator protein.

In assay [2], `COc1cccc(-c2c(C)n(Cc3c(F)cccc3C(F)(F)F)c(=O)n(C[C@H](NCCCC(=O)O)c3ccccc3)c2=O)c1F` [ELAGOLIX SODIUM] registered an inhibition constant (Ki) of 2.38 µM.

For `Cc1c(C(=O)NC2CCCCC2)sc2nc3ccc(N)cc3n12`, the Ki in [3] was 0.908 µM; in [6], 0.656 µM.

`CCc1cc(C(C)=O)c(O)cc1OCCCCCC(C)(C)c1nn[nH]n1` [LY-255283]: the Ki was found to be 5.78 µM in assay [3] and 2.68 µM in assay [6].

In the case of `CN(C)C(=O)C(CCN1CCC(O)(c2ccc(Cl)cc2)CC1)(c1ccccc1)c1ccccc1` [LOPERAMIDE HYDROCHLORIDE], the Ki in assay [8] stood at 2.6 µM; in [1], 1.41 µM; in assay [5] it was 0.0367 µM; at D(4) dopamine receptor, 1.46 µM; in assay [3], 0.169 µM; in assay [6] it was 0.362 µM. This compound also returned a Ki in assay [7] of 3.69 µM.

On to `O=C1N/C(=N/c2ccccc2F)S/C1=C\c1ccc(C(=O)O)cc1`, for which the figures for the Ki (in assay [9]; on D(4) dopamine receptor; at Mu-type opioid receptor) were 5.23 µM, above 10 µM and above 10 µM, respectively.

Regarding `O=C(Cc1ccc(Cl)c(Cl)c1)N1CCCC[C@H]1CN1CCCC1`, the Ki in assay [1] is 4.86 µM; in assay [5], 0.037 µM; on D(4) dopamine receptor, 2.03 µM; in [2] it was 0.000591 µM; in assay [3], 0.0117 µM.
